# Patent publication US10746637B2, “Aldehyde scavenging agent for retrieving elements from fixed tissue” (University of Houston System, priority 2013, dated 2020)
# Where two headings read alike, the source gives them in different places.
# How the values were obtained:
# Collagen IV [1] = assay: Immunohistochemical staining of Collagen IV on formalin fixed paraffin embedded mouse brain sections after antigen retrieval with formaldehyde scavengers and enhancer; design: key: − being non-reactive; Immunoreactivity was scored on a scale of − to +++; Immunoreactivity was scored on a scale of − to +++; +++ being highly reactive; settings: 45 minutes at 95° C.
# Method: 12-month-old C57Bl6J mice were housed under controlled environment conditions on a condition al 12 hour light dark cycle. Following sacrifice, brains were post-fixed in 4% paraformaldehyde for 72 hours at […] and then transferred to 70% ethanol solution where they were stored at 4° C. Tissue was paraffin-processed using convention dehydration and embedding, and then sectioned at 5 μm intervals.
# Tissues were deparaffinized and rehydrated. Slides were placed in a plastic Coplin jar containing either distilled water or a combination of formaldehyde scavengers in combination with an enhancer. Jars were covered with a loose fitting screw cap and heated in a pressure cooker for 45 minutes at 95° C. After heating, the Coplin jars were removed and allowed to cool and rinsed in TBST for five minutes.
# Immunohistochemical staining was performed using a three-step immunostaining technique using the ABC method. Briefly, all incubations were performed as follows: 1) primary antibodies were incubated overnight at 4° C., 2) secondary antibodies were incubated for 10 minutes at room temperature, 3) streptavidin-conjugated enzyme was incubated for 10 minutes at room temperature, 4) peroxidase substrate was incubated for 1 minute.
# Angiotensin I = assay: Mass spectrometry of formalin treated Angiotensin I after heating with aldehyde scavenging compounds; settings: 5% compound, 95° C., 45 minutes
# Method: Angiotensin I is treated with formalin at room temperature for 48 hours. […] Mass-spectrometry is used to analyze the compositions of the Angiotensin I before and after treatment by each compound. Samples of Angiotensin I before (FIG. 11A) and after (FIG. 11B) formalin treatments are used as the controls for the experiment. Peaks at m/z 1296 represent unmodified Angiotensin I. Peaks at m/z 1308 represent Angiotensin I with 1 methylene unit. Peaks at m/z 1320 represent Angiotensin I with 2 methylene units. Peaks at m/z 1338 represent Angiotensin I with 1 methylene unit and 1 hydroxymethylene group. Peaks at m/z 1350 represent Angiotensin I with 2 methylene units and 1 hydroxymethylene group.
# RNA = assay: Recovery of RNA from formalin-fixed paraffin-embedded tissue samples (FIG. 30)
# collagen IV [2] = test system: collagen IV
# GFAP = assay: Microscope images of GFAP immunostaining after antigen retrieval (FIGS. 15-18)
# Collagen IV [3] = assay: Immunohistochemical staining of Collagen IV after antigen retrieval with 0.05% maleic acid and cooling in a second solution; design: species or system mouse; key to Result (immunoreactivity, Collagen IV staining): − being non-reactive; Immunoreactivity was scored on a scale of − to +++; Immunoreactivity was scored on a scale of − to +++; +++ being highly reactive; settings: for immunostaining of Collagen IV after antigen retrieval with maleic acid and cooling to room temperature: FIGS. 31A-31C, compared to dH2O; for Result (immunoreactivity, Collagen IV staining): Table 9, retrieval with 0.05% maleic acid 45 minutes at 95° C., then cooling to room temperature in the named solution (10% guanidine or 2,2,2-trifluoroethanol in water)
# Method: 12-month-old […] mice were housed under controlled environment conditions on a condition al 12 hour light dark cycle. Following sacrifice, brains were post-fixed in 4% paraformaldehyde for 72 hours at 4° C. and then transferred to 70% ethanol solution where they were stored at 4° C. Tissue was paraffin-processed using convention dehydration and embedding, and then sectioned at 5 μm intervals. Tissues were deparaffinized and rehydrated. […] Jars were covered with a loose fitting screw cap and heated in a pressure cooker for 45 minutes at 95° C. After heating, the Coplin jars were removed and slides were allowed to cool to room temperature in either 10% guanidine or 2,2,2-trifluoroethanol in water and rinsed in TBST for five minutes. Immunohistochemical staining was performed using a three-step immunostaining technique using the ABC method. Briefly, all incubations were performed as follows: 1) primary antibodies were incubated overnight at 4° C., 2) secondary antibodies were incubated for 10 minutes at room temperature, 3) streptavidin-conjugated enzyme was incubated for 10 minutes at room temperature, 4) peroxidase substrate was incubated for 1 minute.
# blood vessels = assay: Antigen retrieval in paraformaldehyde fixed vascular tissue, visualization of blood vessels; settings: paraformaldehyde fixed tissue heated in solution of compound (FIGS. 4A-4E)
# Excerpt: Paraformaldehyde fixed tissue samples are heated in solutions of compounds prepared as described in Example 1 and the blood vessels in the tissue are visualized.
# collagen IV [4] = assay: Antigen retrieval and immunodetection of collagen IV in paraformaldehyde fixed tissues (general method); settings: 0.05% maleic anhydride pretreatment; compared with TBST, low pH sodium citrate, pepsin (FIGS. 2A-2D)
# Method: The solution is heated to about 70° C. to about 95° C. for about 30 minutes. The ensuing chemical reaction enables the unmasking or retrieval of the chemical epitopes. The formaldehyde-fixed tissue is placed into the heated solution for about 30 minutes and then washed. The tissues can then be stained to detect the protein of interest.
# [5] = compared to control buffer (FIG. 30)
# [6] = microscope images, figure legends
# [7] = Table 2, aniline compounds, FFPE mouse brain sections
smiles,measurement,setting,value
"NO [1% Hydroxylamine, Hydroxylamine]","Result (immunoreactivity, Collagen IV staining)","Collagen IV [1]; Table 3, 1% hydroxylamine alone or with 4-aminophenol, concentrations in label",+
same,"Result (immunoreactivity, Collagen IV staining)","Collagen IV [1]; Table 4, 1% hydroxylamine alone or with aniline, concentrations in label",+
same,"Result (immunoreactivity, Collagen IV staining)","Collagen IV [1]; Table 5, 0.5% hydroxylamine alone or with aniline, concentrations in label",+
same,retrieval of formalin adducts of Angiotensin I,Angiotensin I,significant retrieval of formalin adducts
same,recovery of RNA from formalin-fixed paraffin-embedded tissue samples,RNA; [5],enhanced recovery of RNA
same,immunostaining of Collagen IV after antigen retrieval,collagen IV [2]; [6],enhanced immunostaining
"NOCc1ccccc1 [1% O-Benzylhydroxylamine, O-Benzylhydroxylamine]","Result (immunoreactivity, Collagen IV staining)","Collagen IV [1]; Table 6, 1% O-benzylhydroxylamine alone or with aniline, concentrations in label",+
same,"Result (immunoreactivity, Collagen IV staining)","Collagen IV [1]; Table 7, 0.5% O-benzylhydroxylamine alone or with aniline, concentrations in label",+
same,recovery of RNA from formalin-fixed paraffin-embedded tissue samples,RNA; [5],enhanced recovery of RNA
same,immunostaining of Collagen IV after antigen retrieval,collagen IV [2]; [6],enhanced immunostaining
"Sc1nc(S)nc(S)n1 [1,3,5-triazine-2,4,6-trithiol]",immunostaining of GFAP after antigen retrieval,GFAP; [6],enhanced immunostaining
CCCC(N)O (centres unmarked) [1-amino-1-butanol],immunostaining of Collagen IV after antigen retrieval,collagen IV [2]; [6],enhanced immunostaining
"OCC(F)(F)F [2,2,2-Trifluoroethanol]",immunostaining of Collagen IV after antigen retrieval with maleic acid and cooling to room temperature,Collagen IV [3],enhanced immunostaining
same,"Result (immunoreactivity, Collagen IV staining)",Collagen IV [3],++
"CC1=C(C)C(=O)OC1=O [2,3-dimethylmaleic anhydride]",antigen retrieval with visualization of the blood vessels,blood vessels,successful antigen retrieval
COc1ccc(N)c(C(=O)O)c1 [2-Amino-5-methoxybenzoic acid],"Result (immunoreactivity, Collagen IV staining)",Collagen IV [1]; [7],−
same,recovery of RNA from formalin-fixed paraffin-embedded tissue samples,RNA; [5],enhanced recovery of RNA
"CC(N)(CO)CO [2-amino-2-methyl-1,3-propanediol]",immunostaining of Collagen IV after antigen retrieval,collagen IV [2]; [6],enhanced immunostaining
O=C1CCCN1 [2-pyrrolidinone],immunostaining of Collagen IV after antigen retrieval,collagen IV [2]; [6],enhanced immunostaining
Nc1ccc(O)cc1 [4-Aminophenol],"Result (immunoreactivity, Collagen IV staining)",Collagen IV [1]; [7],++
same,recovery of RNA from formalin-fixed paraffin-embedded tissue samples,RNA; [5],enhanced recovery of RNA
same,immunostaining of Collagen IV after antigen retrieval,collagen IV [2]; [6],enhanced immunostaining
CCOc1ccc(N)cc1 [4-Ethoxyaniline],"Result (immunoreactivity, Collagen IV staining)",Collagen IV [1]; [7],+
same,immunostaining of Collagen IV after antigen retrieval,collagen IV [2],enhanced immunostaining
Nc1ccccc1 [Aniline],"Result (immunoreactivity, Collagen IV staining)",Collagen IV [1]; [7],++
same,recovery of RNA from formalin-fixed paraffin-embedded tissue samples,RNA; [5],enhanced recovery of RNA
same,immunostaining of Collagen IV after antigen retrieval,collagen IV [2]; [6],enhanced immunostaining
N=C(N)N [Guanidine],immunostaining of Collagen IV after antigen retrieval with maleic acid and cooling to room temperature,Collagen IV [3],enhanced immunostaining
same,"Result (immunoreactivity, Collagen IV staining)",Collagen IV [3],++
same,amount of Angiotensin I with 2 methylene units (m/z 1320),Angiotensin I,does not exhibit any impact
same,content of Angiotensin I with 1 methylene unit and 1 hydroxymethylene group (m/z 1338),Angiotensin I,minimal ability to retrieve
same,immunostaining of Collagen IV after antigen retrieval,collagen IV [2]; [6],enhanced immunostaining
NC(=O)C[C@H](N)C(=O)O [L-asparagine],immunostaining of Collagen IV after antigen retrieval,collagen IV [2]; [6],enhanced immunostaining
NOCC(=O)O [O-(carboxymethyl)hydroxylamine],recovery of RNA from formalin-fixed paraffin-embedded tissue samples,RNA; [5],enhanced recovery of RNA
same,immunostaining of Collagen IV after antigen retrieval,collagen IV [2]; [6],enhanced immunostaining
CCON [O-ethylhydroxylamine],recovery of RNA from formalin-fixed paraffin-embedded tissue samples,RNA; [5],enhanced recovery of RNA
same,immunostaining of Collagen IV after antigen retrieval,collagen IV [2]; [6],enhanced immunostaining
Nc1ccc(S(=O)(=O)O)cc1 [Sulfanilic acid],"Result (immunoreactivity, Collagen IV staining)",Collagen IV [1]; [7],++
same,recovery of RNA from formalin-fixed paraffin-embedded tissue samples,RNA; [5],enhanced recovery of RNA
same,immunostaining of Collagen IV after antigen retrieval,collagen IV [2]; [6],enhanced immunostaining
CC(=O)CC(N)=O [acetoacetamide],immunostaining of Collagen IV after antigen retrieval,collagen IV [2]; [6],enhanced immunostaining
O=C1CC(=O)NC(=O)N1 [barbituric acid],immunostaining of Collagen IV after antigen retrieval,collagen IV [2],enhanced immunostaining
"O=C(O)CC(O)(CC(=O)O)C(=O)O [citric acid, reference compound]",amount of Angiotensin I with 2 methylene units (m/z 1320),Angiotensin I,significantly reduce
same,content of Angiotensin I with 1 methylene unit and 1 hydroxymethylene group (m/z 1338),Angiotensin I,significantly reduce
same,retrieval of formalin adducts of Angiotensin I,Angiotensin I,significant retrieval of formalin adducts
NCCS [cysteamine],immunostaining of GFAP after antigen retrieval,GFAP; [6],enhanced immunostaining
N[C@@H](CS)C(=O)O [cysteine],retrieval of formalin adducts of Angiotensin I,Angiotensin I,significant retrieval of formalin adducts
same,immunostaining of GFAP after antigen retrieval,GFAP; [6],enhanced immunostaining
"CC1(C)CC(=O)CC(=O)C1 [dimedone, 5,5-dimethyl-1,3-cylohexanedione]",immunostaining of Collagen IV after antigen retrieval,collagen IV [2]; [6],enhanced immunostaining
"O=C(O)/C=C/C(=O)O [fumaric acid, reference compound]",antigen retrieval with visualization of the blood vessels,blood vessels,significant reduction in activity
O=C1NCCN1 [imidazolidone],amount of Angiotensin I with 2 methylene units (m/z 1320),Angiotensin I,significantly reduce
same,content of unmodified Angiotensin I (m/z 1296),Angiotensin I,higher content of unmodified Angiotensin I
O=C1C=CC(=O)O1 [maleic anhydride],antigen retrieval and immunodetection of collagen IV,collagen IV [4],Superior antigen retrieval and immunodetection
same,antigen retrieval with visualization of the blood vessels,blood vessels,successful antigen retrieval
COc1ccc(N)cc1 [p-Anisidine],"Result (immunoreactivity, Collagen IV staining)",Collagen IV [1]; [7],++
same,recovery of RNA from formalin-fixed paraffin-embedded tissue samples,RNA,enhanced recovery of RNA
same,immunostaining of Collagen IV after antigen retrieval,collagen IV [2],enhanced immunostaining
Nc1ccc(N)cc1 [p-Phenylenediamine],"Result (immunoreactivity, Collagen IV staining)",Collagen IV [1]; [7],+
same,immunostaining of Collagen IV after antigen retrieval,collagen IV [2],enhanced immunostaining
Cc1ncc(CO)c(CN)c1O [pyridoxamine],immunostaining of Collagen IV after antigen retrieval,collagen IV [2]; [6],enhanced immunostaining
O=S([O-])O.[Na+] [sodium bisulfite],immunostaining of GFAP after antigen retrieval,GFAP,enhanced immunostaining
O=S([O-])S(=O)(=O)[O-].[Na+].[Na+] [sodium metabisulfite],immunostaining of GFAP after antigen retrieval,GFAP; [6],enhanced immunostaining
"O=C1CCC(=O)O1 [succinic anhydride, reference compound]",antigen retrieval with visualization of the blood vessels,blood vessels,no vasculature is visible
O=C1CCC(=O)N1 [succinimide],immunostaining of Collagen IV after antigen retrieval,collagen IV [2]; [6],enhanced immunostaining
O=C(OC[C@H]1O[C@@H](OC(=O)c2cc(O)c(O)c(OC(=O)c3cc(O)c(O)c(O)c3)c2)[C@H](OC(=O)c2cc(O)c(O)c(OC(=O)c3cc(O)c(O)c(O)c3)c2)[C@@H](OC(=O)c2cc(O)c(O)c(OC(=O)c3cc(O)c(O)c(O)c3)c2)[C@@H]1OC(=O)c1cc(O)c(O)c(OC(=O)c2cc(O)c(O)c(O)c2)c1)c1cc(O)c(O)c(OC(=O)c2cc(O)c(O)c(O)c2)c1 [tannic acid],immunostaining of Collagen IV after antigen retrieval,collagen IV [2]; [6],enhanced immunostaining
